{
  "source": "paper PMC9031459",
  "about": "“Experimental Comparison of Primary and hiPS-Based In Vitro Blood–Brain Barrier Models for Pharmacological Research” (Pharmaceutics, 2022)",
  "key": {"pBCECs": {"tested_on": "pBCECs", "experiment": "Permeability across primary porcine BCEC monolayer on Transwell inserts (static)", "assay_type": "in vitro ADME, Sus scrofa domestica", "details": "3 h incubation", "procedure": "The substances of interest were added to the apical side of the membranes, incubated for 3 h at 37 °C, 5% CO2 and 90% relative humidity, and then the samples were collected from the apical and basolateral compartment for measurement."}, "hiPS-BCECs [1]": {"tested_on": "hiPS-BCECs", "experiment": "Permeability/transport across hiPS-derived BCEC monolayer on membrane inserts (static)", "details": "for permeability coefficient: hiPS-BCECs; for caffeine concentration, basolateral side / caffeine concentration, apical side: Figure 8B (static system), 100 µM caffeine apical", "procedure": "(§1) The stem cell line UKKi011-A was differentiated according to the protocol published by Stebbins et al. with slight modifications (Figure 2B). Cells were seeded at a density of 5 × 10^3 cells cm^−2 on Matrigel-coated (Corning, Amsterdam, The Netherlands) 6-well plates and cultivated for 3 days in mTeSR1 medium (Stem Cell Technologies, Vancouver, BC, Canada) before initiating the differentiation. On day 0, the mTeSR1 medium was switched to unconditioned medium (DMEM/F12 with 20% knock-out serum replacement, 1% non-essential amino acids, 0.5% GlutaMAX and […] 2-mercaptoethanol) and medium was exchanged daily for 5 days. On day 6, the medium was changed to endothelial medium with growth factors (heSFM with 1% platelet-poor plasma-derived human serum (PDS; SigmaAldrich, Taufkirchen, Germany), 20 ng mL^−1 bFGF (R&D Systems, Minneapolis, MN, USA) and 10 µM retinoic acid (SigmaAldrich, Taufkirchen, Germany)). On day 8, cells were dissociated with Accutase for 25 min at 37 °C and seeded at a density of 1 × 10^6 cells cm^−2 in endothelial medium with growth factors. Cells were seeded onto membrane inserts with 3.0 µm pore size (VWR International, Darmstadt, Germany) and coated with 400 µg mL^−1 human collagen IV (SigmaAldrich, Taufkirchen, Germany) and 100 µg mL^−1 fibronectin (SigmaAldrich, Taufkirchen, Germany) in 0.05% acetic acid. The medium was changed 24 h after seeding to either endothelial medium without growth factors (heSFM with 1% PDS) or enriched endothelial medium (heSFM with 5% PDS) on the apical side and heSFM on the basolateral side. Experiments were performed on day 10 or 11.\n(§2) The substances of interest were added to the apical side of the membranes, incubated for 3 h at 37 °C, 5% CO2 and 90% relative humidity, and then the samples were collected from the apical and basolateral compartment for measurement. In the microfluidic setup, sodium fluorescein and caffeine (SigmaAldrich, Taufkirchen, Germany) were added to the apical channel and samples were collected 4, 24, 48 (only caffeine) and 72 h after application from both fluidic channels.\n(§3) Sodium fluorescein was added to a final concentration of 1 µg mL^−1, the samples were transferred to black 96-well plates and fluorescence was measured at an excitation of 485 nm and emission of 535 nm with a Tecan infinite 200 plate reader (Tecan Group Ltd., Männedorf, Switzerland).\n(§4) After incubation, the apical and basolateral medium were collected separately, transferred to plastic vials containing 5 mL Ultima Gold scintillation liquid (Perkin Elmer, Waltham, MA, USA) and radioactive decay was measured with a Tri-Carb 2910TR Scintillation counter (Perkin Elmer, Waltham, MA, USA).\n(§5) Caffeine was added to a final concentration of 100 µM to the apical circuit. […] Detection was achieved using a Diode-Array-Detector (DAD) at a wavelength of 275 nm."}, "hiPS-BCECs [2]": {"tested_on": "hiPS-BCECs", "experiment": "Permeability/transport across hiPS-BCEC barrier in microfluidic Quasi Vivo QV600 setup", "details": "fluidic system; for caffeine concentration, basolateral side: 100 µM caffeine apical", "protocol": "(§6) The microfluidic studies were performed using the commercial Quasi Vivo® QV600 system ([…] ., York, UK). […] On day 10, when the barrier has been established, the membrane containing the blood-brain barrier was inserted into the QV 600 chamber. The apical channel was filled with enriched endothelial medium (heSFM with 5% […] added to the basolateral channel. A fluidic flow with a flow rate of 200 μL min^-1 was established and experiments were performed for up to 4 days. […] For comparison, samples in the static setting were collected at the same time points with a separate insert for each time point. […] Standard dilutions of sample media were used for quantification and sample media from cell wells without sodium fluorescence application were used for background subtraction. All measurements were performed in duplex at least. […] Samples were collected from both the apical and basolateral circuits, filtered using Whatman Mini-UniPrepTM filters (VWR International, […] , Germany) and caffeine concentrations measured using HPLC. […] At a flow rate of 0.4 mL min^-1, 5 μL of sample was injected and separated at a column temperature of 60 °C."}, "[3]": {"experiment": "Permeability/transport across hiPS-derived BCEC monolayer on membrane inserts (static)", "details": "human", "procedure": "as §1, §2, §3, §4, §5"}, "[4]": {"tested_on": "co-culture model of human hiPS-BCECs and rat glial cells", "design": "method as in PMID 31690750", "details": "literature value ref 24; cited from earlier work"}, "[5]": {"experiment": "Permeability/transport across hiPS-BCEC barrier in microfluidic Quasi Vivo QV600 setup", "details": "human, not told", "protocol": "as §6"}, "[6]": {"details": "static, established protocol / equal serum distribution (1% PDS both sides), apical application, 3 h incubation"}, "[7]": {"details": "static, serum only in apical medium (5% PDS apical, serum-free basolateral), 3 h incubation"}},
  "data": [
    {"compound": "O=C([O-])c1ccccc1-c1c2ccc(=O)cc-2oc2cc([O-])ccc12.[Na+].[Na+]", "note": "[sodium fluorescein]", "values": [
      {"measurement": "permeability coefficient", "setting": "pBCECs; 5% FCS apical, serum-free basolateral", "value": 0.62, "unit": "×10⁻⁶ cm/s"},
      {"measurement": "permeability coefficient", "setting": "pBCECs; established protocol (serum-free medium on both sides), apical application", "value": 1.85, "unit": "×10⁻⁶ cm/s"},
      {"measurement": "permeability coefficient", "setting": "hiPS-BCECs [1]; static system compared with fluidic, 5% PDS apical, serum-free basolateral", "value": "0.81 × 10^–6 ± 0.82 × 10^–7 cm s^−1"},
      {"measurement": "permeability coefficient", "setting": "hiPS-BCECs [1]; [6]", "value": "1.41e-06", "unit": "cm/s"},
      {"measurement": "permeability coefficient", "setting": "hiPS-BCECs [1]; [7]", "value": "8e-07", "unit": "cm/s"},
      {"measurement": "permeability coefficient", "setting": "hiPS-BCECs [2]; hiPS-BCECs, flow 200 µL min^−1, 5% PDS apical, serum-free basolateral", "value": "2.75 × 10^–6 ± 1.61 × 10^–6 cm s^−1"}
    ]},
    {"compound": "inulin [[14C]-inulin]", "values": [
      {"measurement": "permeability coefficient", "setting": "hiPS-BCECs [1]; [6]", "value": "3.19e-06", "unit": "cm/s"},
      {"measurement": "permeability coefficient", "setting": "hiPS-BCECs [1]; [7]", "value": "8.9e-07", "unit": "cm/s"}
    ]},
    {"compound": "Cn1c(=O)c2c(ncn2C)n(C)c1=O", "note": "[caffeine]", "values": [
      {"measurement": "Papp at 100 µM", "setting": "[3]", "value": 9, "unit": "×10⁻⁶ cm/s"},
      {"measurement": "caffeine concentration, basolateral side", "setting": "hiPS-BCECs [1]; 4 h", "value": "24.46 ± 1.90", "unit": "µM"},
      {"measurement": "caffeine concentration, apical side", "setting": "hiPS-BCECs [1]; 24 h", "value": "36.30 ± 2.71", "unit": "µM"},
      {"measurement": "caffeine concentration, basolateral side", "setting": "hiPS-BCECs [1]; 24 h", "value": "36.19 ± 3.18", "unit": "µM"},
      {"measurement": "caffeine concentration, apical side", "setting": "hiPS-BCECs [1]; 48 h", "value": "37.74 ± 3.02", "unit": "µM"},
      {"measurement": "caffeine concentration, basolateral side", "setting": "hiPS-BCECs [1]; 48 h", "value": "37.97 ± 2.88", "unit": "µM"},
      {"measurement": "permeability coefficient, literature value", "setting": "[4]", "value": "3.1 × 10^–5 cm s^−1"},
      {"measurement": "Papp at 100 µM", "setting": "[5]", "value": 30.4, "unit": "×10⁻⁶ cm/s"},
      {"measurement": "caffeine concentration, basolateral side", "setting": "hiPS-BCECs [2]; 4 h", "value": "5.91 ± 3.36", "unit": "µM"},
      {"measurement": "caffeine concentration, basolateral side", "setting": "hiPS-BCECs [2]; 24 h", "value": "14.85 ± 3.50", "unit": "µM"},
      {"measurement": "caffeine concentration, basolateral side", "setting": "hiPS-BCECs [2]; 48 h", "value": "17.08 ± 4.44", "unit": "µM"},
      {"measurement": "caffeine concentration, basolateral side", "setting": "hiPS-BCECs [2]; 72 h", "value": "17.72 ± 3.34", "unit": "µM"}
    ]}
  ]
}
